Source: patent publication US5607967A, “Treatment of alzheimer's disease with 5-(tetradecyloxy)-2-furan carboxylic acid” (Merck & Co., Inc., priority 1994, dated 1997)

Key:
PC12 cells = assay: Neurite differentiation of PC12 cells; format: cell-based; conditions: NGF alone (100 ng/mL), 4 days
Description: To further study the influence of TOFA on the nervous system, we tested the effect of TOFA on the differentiation of PC12 cells. PC12 cells were plated at a density of approximately 100-200/mm^2 on collagen coated plates or dishes in RPMI medium supplemented with 10% horse serum, 5% fetal calf serum, […] streptomycin, 50 U/mL penicillin in a water saturated atmosphere of 95% air and 5% CO2, at 37° C. overnight. Medium was replaced with fresh RPMI containing 1.5% serum, 100 ng/mL NGF and the indicated concentration of TOFA or an equivalent volume of vehicle (DMSO) giving a final concentration of 0.1% DMSO.
At different time points during the treatment, cells were photographed or fixed with 10% formalin. Morphology was examined after four days of treatment with TOFA or vehicle (DMSO). The number of cells beating neurites and average length of neurites were determined with the aid of the Bioquant imaging system. […] However, as depicted in Table 6 below, NGF alone induced a 15% increase in the number of cells bearing neurites and these outgrowths reached a mean length of 20 μm. Treatment with NGF and TOFA increased the percentage of cells beating neurites to 78%. Maximal neurite generation is observed at a concentration of 10 μM TOFA.
Cells were treated with vehicle (0.1% DMSO) or various concentrations of TOFA in the presence of 100 ng/mL NGF for 4 days, and then fixed with 10% formalin. At least eighty cells from eight wells were analyzed in each group. The results are shown as the mean ±SEM. ^a p<0.01, versus vehicle by Dunnetts test.

[1] = test system: Muscarinic receptor agonist (Pilocarpine) induced catalepsy; assay: Pilocarpine induced catalepsy (Bar method); format: in vivo, rat; conditions: carrier pretreatment, 24 h later 16 mg/kg Pilocarpine
Description: Catalepsy was determined by a modification of the Bar method (Undie and Friedman, 1988). A steel bar, 1.1 cm in diameter and 50 cm long, was suspended at a height of 10 cm above the working surface. Three sides of the bench around the bar were walled off with brown cardboard, and the linings on the bench surface were selected to be of the same color with the cardboard walls. The animal's hind limbs were freely placed on the bench, the fail laid out to the back, and the forelimbs placed over the bar. The length of time a rat stayed up on the bar was noted up to a preset cut-off point of 120 s. The time was counted off upon observing any of the following actions: (1) the animal came off, placing its two forepaws on the bench, (2) the animal climbed onto or over the bar with both hind limbs, (3) the animal initiated locomotion along or around the bar. Subsequently, time readings were translated into scores by awarding a score of 1 for each successfully completed 5 s on the bar. For each observation time, catalepsy scores were averaged for all the animals in a group to give the Mean Score of the group at that observation time. Further, the scores for each animal at all the observation times were added to give the total score for that animal. The mean of this last group of numbers was called the Mean Total Score of the group.
Catalepsy scores were analyzed by computer in accordance with the statistical procedures outlined by Winer, B. J.: Statistical principles in experimental design. McGraw-Hill, New York, pp. 10-428, 1971. Generally, for a given set of comparisons, observations were subjected to an appropriate analysis of variance followed by two-tailed Dunnett or Student's t-tests to detect differences between treatment groups.
Rats were pretreated with 0.4 mg/kg TOFA or with carrier (S.C.). Twenty-four hours later, the rats were challenged with 16 mg/kg Pilocarpine, an agonist of the muscarinic cholinergic receptor, and the duration of catalepsy was monitored as described in Example 10.

GR/NER chimeric receptor = assay: Ligand dependent transcription assay, GR/NER chimeric receptor with MMTV-luciferase reporter; format: cell-based, human
Description: To search for putative ligands for the NER receptor, the chimeric receptor GR/NER was prepared. […] Chimeric receptors were prepared in which the amino terminal portion of the mouse glucocorticoid receptor (mGR) that includes the DNA binding domain was fused to the putative ligand binding domains of the nuclear receptor NER to form the respective chimeric receptor GR/NER. The cDNA sequences coding for amino acid residues Arg^155 and Glu^156 of the hNER receptor (Shinar et al., NER, a new member of a gene family encoding the steroid hormone nuclear receptor; GENE (in press) were convened to the Xho I restriction site, which site was later used for the ligation to the GR cDNA sequences that coded for the DNA binding domain. Thus, the amino acid residues Arg^155 and Glu^156 of the NER receptor were convened to amino acid residues Ser^155 and His^156.
The chimera was employed in ligand dependent transactivation assays with the reporter gene MMTV-luciferase, in which the luciferase cDNA is transcribed under the control of the MMTV promoter.
(§1) Similar hybrid receptors GR/NER, GR/NUC and GR/PPAR, in identical expression plasmid backgrounds were prepared essentially as described for the construction of the GR/mPPAR and GR/NUC chimeric receptors in Schmidt et al., "Identification of a new member of the steroid hormone receptor superfamily that is activated by a peroxisome proliferator and fatty acids," Mol. Endocrinol., 6(10):1634-41, 1992, and in Boie et al., "Enantioselective activation of the peroxisome proliferator-activated receptor", J. Biol. Chem. 268(8):5530-4, 1993.
(§2) Briefly, the amino terminal portion of the mouse glucocorticoid receptor (mGR), that includes the DNA binding domain was fused to the putative ligand binding domains of the nuclear receptor NER, hNUC-I (Schmidt et al., 1992), mPPAR (Issenmann and Green, 1990) to form the respective chimeric receptors GR/NER, GR/NUC and GR/PPAR. The GR/NER chimeric receptor was constructed as described for the GR/NUC and GR/PPAR hybrid receptors (Schmidt et al., 1992; Boie et al). The cDNA sequences coding for amino acids Arg^155 and Glu^156 of the NER receptor were converted to the Xho I restriction site, that was later used for the ligation to the GR cDNA sequences that coded for the DNA binding domain. Thus, converting amino acid residues Arg^155 and Glu^156 of NER receptor to amino acid residues Ser^155 and His^156.

GR/NUC chimeric receptor = biological target: T1, GR/NUC chimeric receptor (Homo sapiens, UniProt Q03181); assay: Ligand dependent transcription assay, GR/NUC chimeric receptor with MMTV-luciferase reporter; format: cell-based
T1 construct: transfected cells, MMTV-luciferase
T1 sequence (Q03181 1-441): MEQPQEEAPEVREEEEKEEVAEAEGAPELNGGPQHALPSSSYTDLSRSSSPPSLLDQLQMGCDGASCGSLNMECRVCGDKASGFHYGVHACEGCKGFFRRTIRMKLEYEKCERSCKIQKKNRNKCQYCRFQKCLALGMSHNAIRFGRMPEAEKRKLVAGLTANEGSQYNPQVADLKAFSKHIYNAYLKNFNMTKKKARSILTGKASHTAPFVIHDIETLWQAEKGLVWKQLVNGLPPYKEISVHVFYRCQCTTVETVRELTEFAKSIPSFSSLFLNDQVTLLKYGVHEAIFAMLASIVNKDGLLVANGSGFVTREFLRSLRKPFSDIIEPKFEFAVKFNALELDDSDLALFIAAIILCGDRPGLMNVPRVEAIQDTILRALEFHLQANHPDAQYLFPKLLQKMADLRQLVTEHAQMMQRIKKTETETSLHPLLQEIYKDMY
T1 sequence (P06537 1-792 partner): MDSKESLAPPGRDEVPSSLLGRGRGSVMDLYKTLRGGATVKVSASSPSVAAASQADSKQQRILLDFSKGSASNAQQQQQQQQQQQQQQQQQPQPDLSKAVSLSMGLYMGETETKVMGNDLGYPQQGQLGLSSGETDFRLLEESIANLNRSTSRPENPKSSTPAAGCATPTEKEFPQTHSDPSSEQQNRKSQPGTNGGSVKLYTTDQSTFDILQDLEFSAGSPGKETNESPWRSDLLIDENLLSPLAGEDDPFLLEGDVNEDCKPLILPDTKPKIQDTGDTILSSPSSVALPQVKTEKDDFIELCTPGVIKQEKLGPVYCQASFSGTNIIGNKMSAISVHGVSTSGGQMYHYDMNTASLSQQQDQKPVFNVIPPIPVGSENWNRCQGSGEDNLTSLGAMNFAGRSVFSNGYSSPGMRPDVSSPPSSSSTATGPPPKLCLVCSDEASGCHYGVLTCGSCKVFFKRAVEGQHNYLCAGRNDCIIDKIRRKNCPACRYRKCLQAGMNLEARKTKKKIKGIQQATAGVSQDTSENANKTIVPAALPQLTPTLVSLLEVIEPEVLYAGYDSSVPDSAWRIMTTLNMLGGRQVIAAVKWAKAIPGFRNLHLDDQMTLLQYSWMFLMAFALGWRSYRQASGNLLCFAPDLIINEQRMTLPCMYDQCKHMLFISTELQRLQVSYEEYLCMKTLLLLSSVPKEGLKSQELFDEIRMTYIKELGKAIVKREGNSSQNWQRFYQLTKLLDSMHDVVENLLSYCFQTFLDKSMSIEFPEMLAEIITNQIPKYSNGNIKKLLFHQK
Description: as §1, §2

[2] = biological target: T2, GR/PPAR chimeric receptor (Mus musculus, UniProt P23204); assay: Ligand dependent transcription assay, GR/PPAR chimeric receptor with MMTV-luciferase reporter; format: cell-based
T2 construct: COS cells, MMTV-luciferase
T2 sequence (P23204 1-468): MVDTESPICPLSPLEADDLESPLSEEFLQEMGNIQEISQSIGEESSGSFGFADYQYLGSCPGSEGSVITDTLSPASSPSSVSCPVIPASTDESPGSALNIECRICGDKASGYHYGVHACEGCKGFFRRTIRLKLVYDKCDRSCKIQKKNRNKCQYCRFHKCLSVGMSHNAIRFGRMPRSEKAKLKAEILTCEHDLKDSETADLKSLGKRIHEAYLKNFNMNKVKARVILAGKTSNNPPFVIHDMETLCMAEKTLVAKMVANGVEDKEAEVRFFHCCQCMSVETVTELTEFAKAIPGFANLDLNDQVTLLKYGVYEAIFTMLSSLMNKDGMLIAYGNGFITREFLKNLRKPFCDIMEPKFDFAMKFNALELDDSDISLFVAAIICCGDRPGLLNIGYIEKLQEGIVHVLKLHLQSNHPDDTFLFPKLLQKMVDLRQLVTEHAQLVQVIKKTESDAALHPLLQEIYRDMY
T2 sequence (P06537 1-792 partner): T1 sequence (P06537 1-792 partner)
Description: as §1, §2
The ligand transcription assay mediated by GR/PPAR in COS cells was performed as described in Example 4. The cells were treated with TOFA and Cerulenin at 0.1, 1, 10 and 100 μM.

[3] = biological target: T2, GR/PPAR chimeric receptor; assay: as above; format: cell-based; conditions: read-out: Fold of stimulation GR/PPAR
human NUCI receptor = biological target: T3, human NUCI receptor (Homo sapiens, UniProt Q03181); assay: Transcription assay, native NUC-I receptor co-transfected with MMTV-luciferase reporter; conditions: read-out: Fold of stimulation NUC-I
T3 sequence (Q03181 1-441): T1 sequence (Q03181 1-441)
Description: (§3) The reporter gene was the plasmid pJA358 in which the expression of firefly luciferase is regulated by two tandem repeats of the glucocorticoid hormone response element (GRE) linked to the MMTV promoter (Boie et al., 1993).
(§4) Transient transfection of COS and CV1 cells was performed as described (Schmidt 1992). Cells were plated (1.5×10^5 in 1 mL) into 12 well dishes in phenol red-free medium supplemented with activated charcoal treated fetal calf serum. The next day 0.12 mL of DNA 10 μg/ml (5 μg receptor DNA and 5 μg reporter plasmid), as a calcium phosphate precipitate, was added to the cells. Ligands were added to the cells 30 minutes after transfection. The next day (18 hours), the cells were washed and fresh ligands added. Twenty-four hours later, cell extracts were prepared and assayed for luciferase enzyme activity using the luciferase assay system (Promega Madison, Wis.). Each transfection was performed in triplicate and the luciferase activity of each sample measured in duplicate using the AutoClinilumat (Berthold Nashua, N.H.).
(§5) The transfected cells were treated with TOFA at 2 μM, 10 μM, 20 μM, and 50 μM and oleic acid at 50 μM, and 300 μM.

[4] = biological target: T4, native mouse glucocorticoid receptor (Mus musculus, UniProt P06537); assay: Transcription assay, native glucocorticoid receptor co-transfected with MMTV-luciferase reporter; conditions: read-out: Fold of stimulation GR
T4 sequence (P06537 1-792): T1 sequence (P06537 1-792 partner)
Description: as §3, §4, §5

In the case of NGF: nerve growth factor, the “Mean length of neurite outgrowths” value (PC12 cells) is reported as 20 μm and the “Number of cells bearing neurites” value (PC12 cells) is reported as 15%.

CC[C@@H]1C(=O)OC[C@@H]1Cc1cncn1C [Pilocarpine, pilocarpine, reference compound] was tested, and the “Catalepsy Duration” value [1] was 27.3 ± 3.6 s.

With CCCCCCCC/C=C\CCCCCCCC(=O)O [Oleic Acid, oleic acid, reference compound] the “Expression mediated by GR/NER” value (GR/NER chimeric receptor) was “not by the GR/NER chimera”, the “Fold of stimulation GR/NER” value (GR/NER chimeric receptor; 50 μM) was 0.90 ± 0.13 fold and the “Fold of stimulation GR/NER” value (GR/NER chimeric receptor; 300 μM) was 0.73 ± 0.21 fold. The “Expression mediated by GR/NUC” value (GR/NUC chimeric receptor) was “activated expression”, the fold induction at 150 µM (GR/NUC chimeric receptor; read-out: Fold of stimulation GR/NUC) was 3.42 ± 0.28 and the “Expression mediated by GR/PPAR” value [2] was “activated expression”. It also gave a fold induction at 50 µM [3] of 2.87 ± 0.2, a fold induction at 300 µM [3] of 14.69 ± 0.06 and a fold induction at 150 µM (human NUCI receptor) of 0.55 ± 0.08. It also gave a fold induction at 150 µM [4] of 0.44 ± 0.17.
